What follows are molecules tested against T1, Toll-like receptor 9 (Homo sapiens, UniProt Q9NR96) (assay: TLR9 Antagonism Assay: Day 1: A cell suspension of HEK-Blue™-hTLR9 cells at ~450,000 cells per ml in test medium which contained 5% (v/v) heat inactivated FBS was prepared. 180 μl of cell suspension (~80,000 cells) was added per well of a flat-bottom 96-well plate and place in an incubator at 37° C. for overnight. Day 2: Test compounds were serially diluted in test medium, generally starting at 10 μM, and diluting by 3 fold in a 96 well master plate. 20 μl of diluted test compound was transferred using a 12 channel multi-channel pipet to the cell plate and incubated at 37° C. for 1 hour. Then 20 μl of an hTLR9 agonist (such as ODN 2006, 1 μM) was added to each well and the plate incubated at 37° C. overnight. Day 3: Invivogen's QUANTI-Blue™ was prepared following the manufacturer's instructions. […] of resuspended QUANTI-Blue™ was added per well of a flat bottom 96-well plate. 20 μl per well of induced HEK-Blue™-hTLR9 cells supernatant was then added to the plate and the plate was incubated at 37° C. for 1-3 h. SEAP levels were determined using a spectrophotometer at 620 nm.).
T1 sequence (Q9NR96 whole entry): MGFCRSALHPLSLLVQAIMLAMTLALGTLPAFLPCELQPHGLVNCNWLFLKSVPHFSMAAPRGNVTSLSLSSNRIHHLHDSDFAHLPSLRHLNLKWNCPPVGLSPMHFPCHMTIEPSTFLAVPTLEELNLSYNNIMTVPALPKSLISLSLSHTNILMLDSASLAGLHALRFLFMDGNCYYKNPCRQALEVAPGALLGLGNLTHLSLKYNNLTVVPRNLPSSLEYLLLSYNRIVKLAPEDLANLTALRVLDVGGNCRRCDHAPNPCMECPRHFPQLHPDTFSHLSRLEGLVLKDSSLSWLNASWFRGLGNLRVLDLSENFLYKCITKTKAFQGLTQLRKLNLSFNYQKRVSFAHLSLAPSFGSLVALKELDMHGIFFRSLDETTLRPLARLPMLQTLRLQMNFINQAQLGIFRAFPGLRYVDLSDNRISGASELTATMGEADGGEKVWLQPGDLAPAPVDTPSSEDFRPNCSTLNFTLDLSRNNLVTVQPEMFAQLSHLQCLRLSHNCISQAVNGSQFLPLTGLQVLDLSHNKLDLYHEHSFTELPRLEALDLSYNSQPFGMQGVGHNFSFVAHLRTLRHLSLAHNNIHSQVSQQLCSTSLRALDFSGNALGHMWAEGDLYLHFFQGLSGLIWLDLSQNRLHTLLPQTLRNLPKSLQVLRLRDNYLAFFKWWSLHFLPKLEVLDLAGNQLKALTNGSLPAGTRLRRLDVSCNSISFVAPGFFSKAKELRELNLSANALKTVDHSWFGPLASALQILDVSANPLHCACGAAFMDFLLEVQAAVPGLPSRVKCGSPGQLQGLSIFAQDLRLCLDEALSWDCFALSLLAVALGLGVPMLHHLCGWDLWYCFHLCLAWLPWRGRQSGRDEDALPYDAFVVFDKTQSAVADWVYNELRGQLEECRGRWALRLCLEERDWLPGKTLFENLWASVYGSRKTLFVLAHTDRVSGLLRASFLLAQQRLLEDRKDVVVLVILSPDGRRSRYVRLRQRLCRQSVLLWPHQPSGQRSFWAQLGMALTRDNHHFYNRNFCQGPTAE

| SMILES | IC50 [µM] |
| --- | --- |
| CN1CCN(CCNc2nc(-c3ccccc3)nc3c2ncn3CCN2CCN(C)CC2)CC1 | 0.604 |
| c1ccc(-c2nc(NCCN3CCOCC3)c3ncn(CCN4CCOCC4)c3n2)cc1 | 7.53 |
| CCCCSc1nc(NCCN2CCOCC2)c2nc(O)n(CCN3CCOCC3)c2n1 | 11.1 |
| Oc1nc2c(NCCN3CCOCC3)nc(-c3ccccc3)nc2n1CCN1CCOCC1 | 8.01 |

Other lines, results leading:

| IC50 [µM] | SMILES |
| --- | --- |
| 0.142 | CCN1CCN(c2ccc(-c3nc(NCCN4CCOCC4)c4nc[nH]c4n3)cc2)CC1 |
| 5.2 | CCOC(=O)Cn1cnc2c(NCCN3CCOCC3)nc(-c3ccc(N4CCN(C)CC4)cc3)nc21 |
| 3.29 | CN1CCN(CCNc2nc(-c3ccccc3)nc3c2ncn3CCN2CCOCC2)CC1 |
| 0.072 | CN1CCN(c2ccc(-c3nc(NCCN4CCOCC4)c4nc[nH]c4n3)cc2)CC1 |
